In brackets after ≈: the same amount, converted by molar mass. Like-named read-outs stand apart in the source and are kept apart here.
Tests used:
[1] = tested on: Plasmodium falciparum NF54; test: P. falciparum in vitro drug sensitivity assay on asexual blood stage parasites ([3H]-hypoxanthine incorporation); assay type: cell-based; conditions: read-out: PfNF54 IC50
[2] = tested on: Staphylococcus aureus ssp. Aureus; test: In vitro antibacterial activity (MIC), S. aureus; assay type: cell-based; conditions: read-out: Sa MIC95
in vitro = conditions: human, HepG2 CC50, 48 h, MTT
[3] = tested on: Mycobacterium tuberculosis (Mtb) strain H37Rv; test: microbe, parasite or virus in culture; assay type: cell-based; conditions: 168 h, 7 days, footnote b: not active at maximum solubility, read-out: MtbH37Rv MIC90
Acinetobacter baumannii = test: In vitro antibacterial activity (growth inhibition, OD600), A. baumannii; assay type: cell-based
E. coli K12 = test: In vitro antibacterial activity (growth inhibition, OD600), E. coli wild-type; assay type: cell-based; conditions: Escherichia coli, Table 1 and main text
[4] = tested on: Streptococcus pneumoniae (DSM20566); test: In vitro antibacterial activity (MIC), S. pneumoniae; assay type: cell-based; conditions: read-out: Sp MIC95
Escherichia coli ∆tolC = test: microbe, parasite or virus in culture; assay type: cell-based; conditions: for MIC / inhibition at 50 µM: Escherichia coli; for inhibition at 50 µM: read-out: Ec∆tolC inh. at 50 µM (%)
[5] = tested on: Pseudomonas aeruginosa PA14; test: In vitro antibacterial activity (growth inhibition, OD600), P. aeruginosa; assay type: cell-based; conditions: PA14, 50 μM compound, Table 1 and main text, read-out: PA14 inh. at 50 μM
[6] = In vitro cytotoxicity by XTT assay; assay type: cell-based; conditions: human, human monocyte-derived macrophages (hMdM)
Solubility in 7H9 medium = assay type: physicochemical; conditions: M. tuberculosis growth medium (7H9)
[7] = Plasmodium falciparum, NF54, Table 1 and main text
[8] = Staphylococcus aureus, Table 1 and main text
[9] = Staphylococcus aureus, Table S2, with standard deviation
[10] = 50 μM compound, Table 1 and main text, read-out: Ab inh. at 50 μM
[11] = Streptococcus pneumoniae, DSM20566, Table 1 and main text
[12] = Streptococcus pneumoniae, DSM20566, Table S2, with standard deviation
[13] = K12, 50 μM compound, read-out: EcK12 inh. at 50 μM
[14] = 50 µM, Table S1, with standard deviation, read-out: Ab inh. at 50 µM (%)

Structure (SMILES)	IC50 [1, 7] [nM]	MIC [2, 8] [µM]	MIC [2, 9] [µM]	CC50 (in vitro) [nM]	MIC90 [3] [µM]	inhibition at 50 µM (Acinetobacter baumannii; [10]) [%]	MIC [4, 11] [µM]	MIC [4, 12] [µM]	MIC (Escherichia coli ∆tolC; read-out: EcΔtolC MIC95) [µM]	MIC (Escherichia coli ∆tolC; read-out: Ec∆tolC MIC95 (µM)) [µM]	inhibition at 50 µM [5] [%]	inhibition at 50 µM (Escherichia coli ∆tolC) [%]	7h9 media Sol. (Solubility in 7H9 medium) [µM]	inhibition at 50 µM (E. coli K12; [13]) [%]	also measured
N=C(N)N1CCN(c2cc(NC(=O)c3cc(-c4cc(Cl)ccc4O)[nH]n3)ccc2C(F)(F)F)CC1 [Compound 13G, N-(3-(4-Carbamimidoylpiperazin-1-yl)-4-(trifluoromethyl)phenyl)-5-(5-chloro-2-hydroxyphenyl)-1H-pyrazole-3-carboxamide]	500	2.5 (≈ 1.27 µg/mL)	2.5 ± 0.3 (≈ 1.27 µg/mL)	> 25000	8 (≈ 4.06 µg/mL)	≥ 45	16 (≈ 8.13 µg/mL)	16 ± 6 (≈ 8.13 µg/mL)	5 (≈ 2.54 µg/mL)	5 ± 2 (≈ 2.54 µg/mL)	17	–	–	–	inhibition at 50 µM (E. coli K12; K12, read-out: EcK12 inh. at 50 μM, 50 μM compound): ≥ 45%; CC90 at 24 h [6]: > 32000 nM
NCc1ccc(NC(=O)c2cc(-c3cc(Cl)ccc3O)[nH]n2)cc1 [Compound 8A]	> 2000	> 50	> 50	30000	> 16	–	> 50	> 50	> 50	–	–	44 ± 16	16	–	IC50 ([1]; Table 1 and main text): 1800 nM
O=C(Nc1cccc(CN2CCNCC2)c1)c1cc(-c2cc(Cl)ccc2O)[nH]n1 [Compound 3A]	620	> 50	> 50	12000	> 64	21	40 (≈ 16.5 µg/mL)	40 ± 7 (≈ 16.5 µg/mL)	45 (≈ 18.5 µg/mL)	45 ± 1 (≈ 18.5 µg/mL)	50	–	64	28	–
O=C(Nc1cccc([N+](=O)[O-])c1)c1cc(-c2cc(Cl)ccc2O)[nH]n1 [Compound 1c]	510	> 50	> 50	–	> 32	–	> 50	> 50	> 50	–	–	–	32	–	–
N=C(N)NCc1ccc(NC(=O)c2cc(-c3cc(Cl)ccc3O)[nH]n2)cc1C(F)(F)F [Compound 10G]	250	5 (≈ 2.26 µg/mL)	5 ± 1 (≈ 2.26 µg/mL)	> 50000	8 (≈ 3.62 µg/mL)	49	16 (≈ 7.25 µg/mL)	16 ± 5 (≈ 7.25 µg/mL)	3.5 (≈ 1.58 µg/mL)	3.5 ± 0.8 (≈ 1.58 µg/mL)	55	–	–	86	CC90 at 24 h [6]: > 32000 nM
CC(C)(C)OC(=O)NCc1ccc(NC(=O)c2cc(-c3cc(Cl)ccc3O)[nH]n2)cc1 [Compound 8B]	1700	> 50	> 50	> 50000	–	–	> 50	> 50	> 50	–	–	< 10	< 8	–	–
O=C(Nc1cccc(N2CCNCC2)c1)c1cc(-c2cc(Cl)ccc2O)[nH]n1 [Compound 5A]	130	37 (≈ 14.7 µg/mL)	37 ± 10 (≈ 14.7 µg/mL)	9000	64 (≈ 25.5 µg/mL)	34	26 (≈ 10.3 µg/mL)	26 ± 1 (≈ 10.3 µg/mL)	21 (≈ 8.36 µg/mL)	21 ± 2 (≈ 8.36 µg/mL)	60	–	64	83	inhibition at 50 µM (Acinetobacter baumannii; [14]): 34.3 ± 0.4%
CC(C)(C)OC(=O)N1CCN(c2ccc(NC(=O)c3cc(-c4cc(Cl)ccc4O)[nH]n3)cc2C(F)(F)F)CC1 [Compound 12B, tert-Butyl 4-(4-(5-(5-chloro-2-hydroxyphenyl)-1H-pyrazole-3-carboxamido)-2-(trifluoromethyl)phenyl)piperazine-1-carboxylate]	560	> 50	> 50	> 50000	–	–	> 50	> 50	> 50	–	–	< 10	< 8	–	inhibition at 50 µM (Acinetobacter baumannii; [14]): < 10%
NCc1cccc(NC(=O)c2cc(-c3cc(Cl)ccc3O)[nH]n2)c1 [Compound 7A]	300	> 50	> 50	28400	> 64	15	43 (≈ 14.7 µg/mL)	43 ± 11 (≈ 14.7 µg/mL)	47 (≈ 16.1 µg/mL)	47 ± 1 (≈ 16.1 µg/mL)	44	–	64	27	–
O=C(Nc1ccc(N2CCNCC2)cc1)c1cc(-c2cc(Cl)ccc2O)[nH]n1 [Compound 6A]	140	> 50	> 50	11800	> 16	37	45 (≈ 17.9 µg/mL)	45 (≈ 17.9 µg/mL)	22.5 (≈ 8.95 µg/mL)	22.5 (≈ 8.95 µg/mL)	63	–	16	49	–
CC(C)(C)OC(=O)N1CCN(c2cc(NC(=O)c3cc(-c4cc(Cl)ccc4O)[nH]n3)cc(C(F)(F)F)c2)CC1 [Compound 11B]	130	> 50	> 50	4000	–	–	> 50	> 50	> 50	–	–	18 ± 4	< 8	–	inhibition at 50 µM (Acinetobacter baumannii; [14]): < 10%
O=C(Nc1cccc(C(F)(F)F)c1)c1cc(-c2cc(Cl)ccc2O)[nH]n1 [Compound 1a]	210	> 50	> 50	> 50000	–	< 10	> 50	> 50	> 50	–	< 10	< 10	< 8	< 10	MIC ([2]; Table 1 and main text): >50 µM; MIC ([4]; Table 1 and main text): >50 µM; EcΔtolC MIC95 (Escherichia coli ∆tolC; Table 1 and main text): >50 µM
O=C(Nc1cccc(F)c1)c1cc(-c2cc(Cl)ccc2O)[nH]n1 [Compound 1b]	700	> 50	> 50	–	–	–	> 50	> 50	> 50	–	–	–	< 8	–	–
O=C(Nc1cccc(CN2CCOCC2)c1)c1cc(-c2cc(Cl)ccc2O)[nH]n1 [Compound 2]	1100	> 50	> 50	~50000	> 16	–	> 50	> 50	> 50	–	–	24 ± 12	16	–	–

From PMC11938010, “Positive Charge in an Antimalarial Compound Unlocks Broad-Spectrum Antibacterial Activity” (JACS Au, 2025)
